Assay results from patent US7138361B2, “Herbicidal heterocycles” (E. I. du Pont de Nemours and Company, priority 2000, dated 2006).

Legend:
Format in all cases: in vivo
[1] = tested on: Sunflower; experiment: Test C preemergence; conditions: Rate 500 g/ha, visual evaluation after 12 to 14 days
[2] = tested on: crabgrass (Digitaria sanguinalis); experiment: Test B preemergence
Outline: (§1)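 Visual injury scores, 0 = no effect to 100 = complete control, assigned against controls after 13 to 15 days in the greenhouse. Compounds formulated in non-phytotoxic solvent plus surfactant and applied to soil after planting (pre) or onto foliage of 1- to 4-leaf plants (post).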

[3] = tested on: lambsquarters (Chenopodium album); experiment: Test B preemergence
Outline: as §1

[4] = tested on: pigweed (Amaranthus retroflexus); experiment: Test B preemergence
Outline: as §1

[5] = tested on: rice (Oryza saliva); experiment: Test B preemergence
Outline: as §1

[6] = tested on: velvetleaf (Abutilon theophrasti); experiment: Test B preemergence
Outline: as §1

[7] = tested on: Surinam grass (Brachiaria decumbens); experiment: Test B preemergence
Outline: as §1

[8] = tested on: giant foxtail (Setaria faberii); experiment: Test B preemergence
Outline: as §1

[9] = tested on: corn (Zea mays); experiment: Test B preemergence
Outline: as §1

[10] = tested on: morning glory (Ipomoea hederacea); experiment: Test B preemergence
Outline: as §1

[11] = tested on: barnyardgrass (Echinochloa crus-galli); experiment: Test B preemergence
Outline: as §1

[12] = tested on: cocklebur (Xanthium strumarium); experiment: Test B preemergence
Outline: as §1

[13] = tested on: Sunflower; experiment: Test C preemergence; conditions: Rate 62 g/ha, scale 0 to 100
[14] = tested on: pigweed (Amaranthus retroflexus); experiment: Test C preemergence
Outline: (§2)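 Plants held in greenhouse for 12–14 days post-application are scored by eye against controls on a 0–100 control scale. Application timing: preemergence on sown seed, or postemergence on 2–18 cm plants.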

[15] = tested on: woolly cupgrass (Eriochloa villosa); experiment: Test C preemergence
Outline: as §2

[16] = tested on: Sunflower; experiment: Test C preemergence; conditions: Rate 125 g/ha; scale 0 to 100, 0 no effect, 100 complete control
[17] = tested on: velvetleaf (Abutilon theophrasti); experiment: Test C preemergence
Outline: as §2

[18] = tested on: rice (Oryza saliva); experiment: Test C flooded paddy test; conditions: for Plant response rating, Rice: scale 0 to 100 (0 no effect, 100 complete control)
Outline: (§3)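 Rice and three paddy weeds were grown to the 2-leaf stage under flooded conditions, then treated and kept in a greenhouse for 12–14 days. Response was rated visually against untreated controls on a 0–100 scale, where 100 is complete control.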

[19] = tested on: duck salad (Heteranthera limosa); experiment: Test C flooded paddy test; conditions: for Plant response rating, Ducksalad: scale 0 to 100 (0 no effect, 100 complete control)
Outline: as §3

[20] = tested on: smallflower flatsedge (Cyperus difformis); experiment: Test C flooded paddy test; conditions: for Plant response rating, Flatsedge: scale 0 to 100 (0 no effect, 100 complete control)
Outline: as §3

[21] = tested on: barnyardgrass (Echinochloa crus-galli); experiment: Test C flooded paddy test; conditions: for Plant response rating, Barnyardgrass: scale 0 to 100 (0 no effect, 100 complete control)
Outline: as §3

[22] = tested on: Nightshade; experiment: Test C preemergence; conditions: Rate 500 g/ha, visual evaluation after 12 to 14 days
[23] = Preemergence, Rate 500 g/ha, scale 0 to 100, 0 no effect, 100 complete control
[24] = preemergence, Rate 125 g/ha, scale of 0 to 100 where 0 is no effect and 100 is complete control, 13 to 15 days
[25] = Rate 125 g/ha, scale 0 to 100, 0 no effect, 100 complete control
[26] = preemergence, Rate 62 g/ha, scale 0 to 100
[27] = preemergence, Rate 500 g/ha, visual evaluation after 12 to 14 days
[28] = preemergence, Rate 250 g/ha, scale 0 to 100, 0 no effect, 100 complete control
[29] = Flooded Paddy, Rate 500 g/ha, scale 0 to 100, 0 no effect, 100 complete control
[30] = flooded paddy test, Rate 125 g/ha
[31] = flooded paddy test, Rate 250 g/ha
[32] = flooded paddy test, Rate 62 g/ha, visually evaluated after 12 to 14 days, 0 = no effect, 100 = complete control

Q: Which results are given for `CCC(C)c1ccn(C2OCN(c3cccc(OC(F)F)c3)C2=O)n1` (stereo not drawn) [Compound 134]?
A: Plant response rating (0 to 100), Sunflower [1]: 20; Plant response rating, Crabgrass [2, 23]: 100; Plant response rating, Crabgrass [2, 24]: 100; Plant response rating, Lambsquarters [3, 23]: 100; Plant response rating, Lambsquarters [3, 24]: 100; Plant response rating, Pigweed [4, 23]: 100; Plant response rating, Pigweed [4, 24]: 100; Plant response rating, Rice [5, 23]: 100; Plant response rating, Rice [5, 24]: 100; Plant response rating, Velvetleaf [6, 23]: 0; Plant response rating, Velvetleaf [6, 24]: 0; Plant response rating, Surinam grass [7, 23]: 100; Plant response rating, Surinam grass [7, 24]: 90; Plant response rating, Foxtail, Giant [8, 23]: 100; Plant response rating, Foxtail, Giant [8, 24]: 100; Plant response rating, Corn [9, 23]: 90; Plant response rating, Corn [9, 24]: 20; Plant response rating, Morningglory [10, 23]: 0; Plant response rating, Morningglory [10, 24]: 0; Plant response rating, Barnyardgrass [11, 23]: 100; Plant response rating, Barnyardgrass [11, 24]: 100; Plant response rating, Cocklebur [12, 23]: 0; Plant response rating, Cocklebur [12, 24]: 0; Plant response rating, Sunflower [13]: 0; Plant response rating, Pigweed [14, 25]: 100; Plant response rating, Pigweed [14, 26]: 100; Plant response rating (0 to 100), Pigweed [14, 27]: 100; Plant response rating, Pigweed [14, 28]: 100; Plant response rating, Cupgrass, Woolly [15, 25]: 100; Plant response rating, Cupgrass, Woolly [15, 26]: 100; Plant response rating (0 to 100), Cupgrass, Woolly [15, 27]: 100; Plant response rating, Cupgrass, Woolly [15, 28]: 100; Plant response rating, Sunflower [16]: 0; Plant response rating, Velvetleaf [17, 25]: 20; Plant response rating, Velvetleaf [17, 26]: 20; Plant response rating (0 to 100), Velvetleaf [17, 27]: 20; Plant response rating, Velvetleaf [17, 28]: 20; Rice plant response rating [18, 29]: 90; Plant response rating, Rice [18, 30]: 60; Plant response rating, Rice [18, 31]: 90; Plant response rating (scale 0 to 100), Rice [18, 32]: 0; Ducksalad plant response rating [19, 29]: 100; Plant response rating, Ducksalad [19, 30]: 90; Plant response rating, Ducksalad [19, 31]: 100; Plant response rating (scale 0 to 100), Ducksalad [19, 32]: 60; Flatsedge plant response rating [20, 29]: 100; Plant response rating, Flatsedge [20, 30]: 100; Plant response rating, Flatsedge [20, 31]: 100; Plant response rating (scale 0 to 100), Flatsedge [20, 32]: 90; Barnyardgrass plant response rating [21, 29]: 100; Plant response rating, Barnyardgrass [21, 30]: 100; Plant response rating, Barnyardgrass [21, 31]: 100; Plant response rating (scale 0 to 100), Barnyardgrass [21, 32]: 100; Plant response rating (0 to 100), Nightshade [22]: 90
